Data from the kinase profiling compilation of Christmann-Franck et al. (2016).

How the values were obtained:
Assay in all cases: KINOMEscan competition binding
Settings in all cases: compound 10.0 µM
CSF1R (human) = CSF1R (human) (UniProt P07333)
CAMK2B (human) = CAMK2B (human) (UniProt Q13554)
ICK (human) = ICK (human) (UniProt Q9UPZ9)
CDK4 CCND1 (human) = CDK4 CCND1 (human) (UniProt P11802+P24385)
[1] = tested on: EGFR (human), P00533 [747-751 del / S ins]
PLK2 (human) = PLK2 (human) (UniProt Q9NYY3)
[2] = tested on: PIK3CA (human), P42336 [H1047L]
BRSK1 (human) = BRSK1 (human) (UniProt Q8TDC3)
LRRK2 (human) = LRRK2 (human) (UniProt Q5S007)
NEK5 (human) = NEK5 (human) (UniProt Q6P3R8)
CHUK (human) = CHUK (human) (UniProt O15111)
CDK18 (human) = CDK18 (human) (UniProt Q07002)
MAP2K5 (human) = MAP2K5 (human) (UniProt Q13163)
DCLK2 (human) = DCLK2 (human) (UniProt Q8N568)
AKT2 (human) = AKT2 (human) (UniProt P31751)
MAP2K7 (human) = MAP2K7 (human) (UniProt O14733)
PRKD3 (human) = PRKD3 (human) (UniProt O94806)
LTK (human) = LTK (human) (UniProt P29376)
MAPK4 (human) = MAPK4 (human) (UniProt P31152)
MARK1 (human) = MARK1 (human) (UniProt Q9P0L2)
EPHB1 (human) = EPHB1 (human) (UniProt P54762)
ERBB4 (human) = ERBB4 (human) (UniProt Q15303)
PRKG2 (human) = PRKG2 (human) (UniProt Q13237)
STK33 (human) = STK33 (human) (UniProt Q9BYT3)
CDC42BPB (human) = CDC42BPB (human) (UniProt Q9Y5S2)
IKBKE (human) = IKBKE (human) (UniProt Q14164)
ULK1 (human) = ULK1 (human) (UniProt O75385)
FLT3 (human) = FLT3 (human) (UniProt P36888)
NTRK1 (human) = NTRK1 (human) (UniProt P04629)
CDC42BPA (human) = CDC42BPA (human) (UniProt Q5VT25)
PKMYT1 (human) = PKMYT1 (human) (UniProt Q99640)
TGFBR1 (human) = TGFBR1 (human) (UniProt P36897)
[3] = tested on: FLT3 (human), P36888 [K663Q]
CaMK1 (human) = CaMK1 (human) (UniProt Q14012)
STK38L (human) = STK38L (human) (UniProt Q9Y2H1)
PIK3CB (human) = PIK3CB (human) (UniProt P42338)
BRSK2 (human) = BRSK2 (human) (UniProt Q8IWQ3)
SRC (human) = SRC (human) (UniProt P12931)
[4] = tested on: PIK3CA (human), P42336 [M1043I]
ACVR1B (human) = ACVR1B (human) (UniProt P36896)
DAPK2 (human) = DAPK2 (human) (UniProt Q9UIK4)

ERBB4 (human), sequence (Q15303 whole entry, looked up): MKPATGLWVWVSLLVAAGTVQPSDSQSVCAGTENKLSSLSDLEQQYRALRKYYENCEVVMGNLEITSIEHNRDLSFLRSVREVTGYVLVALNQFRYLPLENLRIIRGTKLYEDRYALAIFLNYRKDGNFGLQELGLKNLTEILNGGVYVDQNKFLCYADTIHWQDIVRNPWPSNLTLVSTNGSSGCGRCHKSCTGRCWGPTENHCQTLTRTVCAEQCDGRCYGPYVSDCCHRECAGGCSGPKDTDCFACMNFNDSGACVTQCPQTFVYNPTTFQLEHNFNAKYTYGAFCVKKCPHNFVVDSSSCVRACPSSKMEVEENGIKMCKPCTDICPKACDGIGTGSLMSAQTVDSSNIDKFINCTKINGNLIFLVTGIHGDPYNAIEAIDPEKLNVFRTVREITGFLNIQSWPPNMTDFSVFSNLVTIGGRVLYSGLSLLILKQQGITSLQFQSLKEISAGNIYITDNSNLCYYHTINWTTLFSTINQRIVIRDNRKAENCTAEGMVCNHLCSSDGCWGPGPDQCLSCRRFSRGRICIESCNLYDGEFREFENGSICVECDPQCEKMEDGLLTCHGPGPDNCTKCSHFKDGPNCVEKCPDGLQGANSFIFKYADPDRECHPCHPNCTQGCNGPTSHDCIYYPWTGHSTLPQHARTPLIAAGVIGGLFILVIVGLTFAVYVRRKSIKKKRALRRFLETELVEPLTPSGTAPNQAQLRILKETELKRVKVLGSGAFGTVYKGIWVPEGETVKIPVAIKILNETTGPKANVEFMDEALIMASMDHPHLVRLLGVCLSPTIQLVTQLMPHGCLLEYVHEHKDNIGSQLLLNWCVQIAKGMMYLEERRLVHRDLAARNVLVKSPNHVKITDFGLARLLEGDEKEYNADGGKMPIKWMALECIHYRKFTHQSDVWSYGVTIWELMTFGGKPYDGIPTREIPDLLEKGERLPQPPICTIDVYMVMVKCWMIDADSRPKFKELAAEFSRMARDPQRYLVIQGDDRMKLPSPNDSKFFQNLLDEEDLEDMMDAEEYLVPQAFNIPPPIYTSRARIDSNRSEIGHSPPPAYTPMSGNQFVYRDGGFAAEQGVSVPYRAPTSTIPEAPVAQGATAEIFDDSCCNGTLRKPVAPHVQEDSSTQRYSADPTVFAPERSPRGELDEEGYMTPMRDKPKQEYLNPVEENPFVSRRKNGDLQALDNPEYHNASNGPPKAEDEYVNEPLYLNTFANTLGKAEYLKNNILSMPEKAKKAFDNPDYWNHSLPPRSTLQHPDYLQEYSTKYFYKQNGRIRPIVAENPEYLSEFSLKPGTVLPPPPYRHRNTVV
LRRK2 (human), sequence (Q5S007 whole entry, looked up): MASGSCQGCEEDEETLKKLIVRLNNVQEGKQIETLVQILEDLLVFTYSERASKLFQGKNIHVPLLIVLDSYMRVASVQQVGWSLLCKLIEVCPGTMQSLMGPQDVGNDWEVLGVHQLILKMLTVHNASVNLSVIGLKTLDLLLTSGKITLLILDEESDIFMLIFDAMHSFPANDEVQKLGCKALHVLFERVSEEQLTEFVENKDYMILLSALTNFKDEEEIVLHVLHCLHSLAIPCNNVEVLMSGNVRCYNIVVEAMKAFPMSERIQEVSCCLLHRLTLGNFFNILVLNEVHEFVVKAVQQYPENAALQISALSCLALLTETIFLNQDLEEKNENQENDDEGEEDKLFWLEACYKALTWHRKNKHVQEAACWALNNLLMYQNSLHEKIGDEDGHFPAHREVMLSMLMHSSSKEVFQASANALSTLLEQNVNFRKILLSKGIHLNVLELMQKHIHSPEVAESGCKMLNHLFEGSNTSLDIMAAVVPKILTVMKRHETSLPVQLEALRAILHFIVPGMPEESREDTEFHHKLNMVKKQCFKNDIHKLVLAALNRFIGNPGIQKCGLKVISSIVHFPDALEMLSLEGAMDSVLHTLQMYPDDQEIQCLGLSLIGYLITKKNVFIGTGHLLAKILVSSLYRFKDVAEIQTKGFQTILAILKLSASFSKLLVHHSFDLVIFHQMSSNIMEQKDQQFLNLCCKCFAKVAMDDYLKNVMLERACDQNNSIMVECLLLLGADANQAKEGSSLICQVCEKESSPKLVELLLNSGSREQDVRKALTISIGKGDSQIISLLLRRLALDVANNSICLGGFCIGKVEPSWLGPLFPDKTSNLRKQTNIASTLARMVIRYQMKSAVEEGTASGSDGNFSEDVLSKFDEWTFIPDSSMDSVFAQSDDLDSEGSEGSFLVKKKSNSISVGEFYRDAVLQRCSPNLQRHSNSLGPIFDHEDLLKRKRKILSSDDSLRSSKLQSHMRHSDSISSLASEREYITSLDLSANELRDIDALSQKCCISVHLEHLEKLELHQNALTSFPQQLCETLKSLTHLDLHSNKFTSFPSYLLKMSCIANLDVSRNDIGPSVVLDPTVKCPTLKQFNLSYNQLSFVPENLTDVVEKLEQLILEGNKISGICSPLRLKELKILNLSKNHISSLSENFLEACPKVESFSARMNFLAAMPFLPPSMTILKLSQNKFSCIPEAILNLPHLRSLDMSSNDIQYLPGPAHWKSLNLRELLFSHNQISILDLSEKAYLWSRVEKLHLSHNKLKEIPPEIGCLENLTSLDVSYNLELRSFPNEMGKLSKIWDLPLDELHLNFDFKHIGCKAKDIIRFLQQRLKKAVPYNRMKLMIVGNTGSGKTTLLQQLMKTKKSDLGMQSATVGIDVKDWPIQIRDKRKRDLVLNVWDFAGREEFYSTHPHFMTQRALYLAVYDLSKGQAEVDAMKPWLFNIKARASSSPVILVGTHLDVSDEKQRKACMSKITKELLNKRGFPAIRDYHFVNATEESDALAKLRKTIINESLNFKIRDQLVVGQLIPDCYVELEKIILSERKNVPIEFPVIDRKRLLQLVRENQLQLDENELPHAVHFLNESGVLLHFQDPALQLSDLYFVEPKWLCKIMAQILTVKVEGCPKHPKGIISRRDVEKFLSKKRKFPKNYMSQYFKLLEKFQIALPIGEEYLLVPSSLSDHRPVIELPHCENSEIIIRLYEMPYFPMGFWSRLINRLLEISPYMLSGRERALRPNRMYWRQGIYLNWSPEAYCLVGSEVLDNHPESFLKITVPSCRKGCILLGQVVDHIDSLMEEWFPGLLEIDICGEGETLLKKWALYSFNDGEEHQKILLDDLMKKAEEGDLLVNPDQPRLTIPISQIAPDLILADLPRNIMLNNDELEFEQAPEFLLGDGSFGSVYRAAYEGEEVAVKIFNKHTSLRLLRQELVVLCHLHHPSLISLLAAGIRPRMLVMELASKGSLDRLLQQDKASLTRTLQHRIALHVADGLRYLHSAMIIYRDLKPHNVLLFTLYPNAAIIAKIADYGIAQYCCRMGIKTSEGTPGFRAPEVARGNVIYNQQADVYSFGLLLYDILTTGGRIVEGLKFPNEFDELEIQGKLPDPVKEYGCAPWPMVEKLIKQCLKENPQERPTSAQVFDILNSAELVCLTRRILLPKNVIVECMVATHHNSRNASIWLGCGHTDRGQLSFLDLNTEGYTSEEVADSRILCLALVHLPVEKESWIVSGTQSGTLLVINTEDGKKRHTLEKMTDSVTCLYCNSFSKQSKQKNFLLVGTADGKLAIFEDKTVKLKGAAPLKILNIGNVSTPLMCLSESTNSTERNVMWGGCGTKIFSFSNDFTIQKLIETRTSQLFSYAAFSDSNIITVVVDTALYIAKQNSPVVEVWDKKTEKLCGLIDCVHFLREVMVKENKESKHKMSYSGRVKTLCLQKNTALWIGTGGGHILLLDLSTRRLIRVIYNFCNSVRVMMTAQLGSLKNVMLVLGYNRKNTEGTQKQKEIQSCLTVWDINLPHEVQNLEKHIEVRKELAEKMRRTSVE
TGFBR1 (human), sequence (P36897 whole entry, looked up): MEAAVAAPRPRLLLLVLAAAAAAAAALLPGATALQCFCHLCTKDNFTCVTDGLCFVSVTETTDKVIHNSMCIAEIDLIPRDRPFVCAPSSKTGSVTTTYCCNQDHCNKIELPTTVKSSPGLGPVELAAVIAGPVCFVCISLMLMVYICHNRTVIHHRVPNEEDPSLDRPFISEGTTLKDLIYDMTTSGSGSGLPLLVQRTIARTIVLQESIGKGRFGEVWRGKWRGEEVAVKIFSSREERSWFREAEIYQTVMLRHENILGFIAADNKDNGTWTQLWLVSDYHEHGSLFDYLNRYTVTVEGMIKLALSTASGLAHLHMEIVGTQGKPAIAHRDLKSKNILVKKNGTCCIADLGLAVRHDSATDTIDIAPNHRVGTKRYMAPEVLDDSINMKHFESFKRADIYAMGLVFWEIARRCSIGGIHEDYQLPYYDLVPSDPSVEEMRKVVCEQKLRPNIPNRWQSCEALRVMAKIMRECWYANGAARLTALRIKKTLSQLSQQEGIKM
CDK4 CCND1 (human), sequence (P11802 whole entry, looked up): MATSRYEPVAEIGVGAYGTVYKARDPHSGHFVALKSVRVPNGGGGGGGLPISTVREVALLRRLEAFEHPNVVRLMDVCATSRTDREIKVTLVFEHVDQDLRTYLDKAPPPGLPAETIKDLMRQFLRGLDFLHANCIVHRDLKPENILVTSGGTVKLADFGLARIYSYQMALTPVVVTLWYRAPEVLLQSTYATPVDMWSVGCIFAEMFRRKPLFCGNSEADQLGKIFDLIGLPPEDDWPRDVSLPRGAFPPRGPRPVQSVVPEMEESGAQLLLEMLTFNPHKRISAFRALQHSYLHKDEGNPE
CDK4 CCND1 (human), sequence (P24385 whole entry, looked up): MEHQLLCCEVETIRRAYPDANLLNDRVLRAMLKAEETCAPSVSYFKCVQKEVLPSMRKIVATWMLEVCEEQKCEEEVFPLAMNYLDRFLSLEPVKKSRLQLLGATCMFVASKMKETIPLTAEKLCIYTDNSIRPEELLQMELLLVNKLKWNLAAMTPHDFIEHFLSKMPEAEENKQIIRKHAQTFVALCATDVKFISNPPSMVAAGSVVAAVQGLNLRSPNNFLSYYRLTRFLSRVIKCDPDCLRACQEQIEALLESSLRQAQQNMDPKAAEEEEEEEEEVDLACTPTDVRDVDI

Structure (SMILES): CCC(=O)N1CCN(c2ccc(-n3c(=O)ccc4cnc5ccc(-c6cnc7ccccc7c6)cc5c43)cc2C(F)(F)F)CC1
- kinase still bound, per cent of control (CSF1R (human)): 24%
- kinase still bound, per cent of control (CAMK2B (human)): 100%
- kinase still bound, per cent of control (ICK (human)): 100%
- per cent of control (CDK4 CCND1 (human)): 100%
- kinase still bound, per cent of control [1]: 80%
- kinase still bound, per cent of control (PLK2 (human)): 85%
- kinase still bound, per cent of control [2]: 2.6%
- kinase still bound, per cent of control (BRSK1 (human)): 78%
- kinase still bound, per cent of control (LRRK2 (human)): 81%
- kinase still bound, per cent of control (NEK5 (human)): 5.8%
- kinase still bound, per cent of control (CHUK (human)): 41%
- per cent of control (CDK18 (human)): 97%
- kinase still bound, per cent of control (MAP2K5 (human)): 100%
- kinase still bound, per cent of control (DCLK2 (human)): 100%
- kinase still bound, per cent of control (AKT2 (human)): 100%
- kinase still bound, per cent of control (MAP2K7 (human)): 100%
- kinase still bound, per cent of control (PRKD3 (human)): 100%
- kinase still bound, per cent of control (LTK (human)): 77%
- kinase still bound, per cent of control (MAPK4 (human)): 80%
- kinase still bound, per cent of control (MARK1 (human)): 100%
- kinase still bound, per cent of control (EPHB1 (human)): 100%
- kinase still bound, per cent of control (ERBB4 (human)): 100%
- kinase still bound, per cent of control (PRKG2 (human)): 78%
- kinase still bound, per cent of control (STK33 (human)): 90%
- kinase still bound, per cent of control (CDC42BPB (human)): 3.4%
- kinase still bound, per cent of control (IKBKE (human)): 87%
- kinase still bound, per cent of control (ULK1 (human)): 100%
- kinase still bound, per cent of control (FLT3 (human)): 16%
- kinase still bound, per cent of control (NTRK1 (human)): 64%
- kinase still bound, per cent of control (CDC42BPA (human)): 0.65%
- kinase still bound, per cent of control (PKMYT1 (human)): 52%
- kinase still bound, per cent of control (TGFBR1 (human)): 70%
- kinase still bound, per cent of control [3]: 23%
- kinase still bound, per cent of control (CaMK1 (human)): 50%
- kinase still bound, per cent of control (STK38L (human)): 94%
- kinase still bound, per cent of control (PIK3CB (human)): 65%
- kinase still bound, per cent of control (BRSK2 (human)): 76%
- kinase still bound, per cent of control (SRC (human)): 95%
- kinase still bound, per cent of control [4]: 8.6%
- kinase still bound, per cent of control (ACVR1B (human)): 45%

Structure (SMILES): COC(=O)Nc1ccc(-c2nc(N3CCOCC3)c3cnn(C4CCN(C(=O)OC)CC4)c3n2)cc1
- kinase still bound, per cent of control (CSF1R (human)): 90%
- kinase still bound, per cent of control (CAMK2B (human)): 100%
- kinase still bound, per cent of control (ICK (human)): 85%
- per cent of control (CDK4 CCND1 (human)): 100%
- kinase still bound, per cent of control [1]: 100%
- kinase still bound, per cent of control (PLK2 (human)): 96%
- kinase still bound, per cent of control [2]: 12%
- kinase still bound, per cent of control (BRSK1 (human)): 95%
- kinase still bound, per cent of control (LRRK2 (human)): 91%
- kinase still bound, per cent of control (NEK5 (human)): 100%
- kinase still bound, per cent of control (CHUK (human)): 63%
- per cent of control (CDK18 (human)): 100%
- kinase still bound, per cent of control (MAP2K5 (human)): 100%
- kinase still bound, per cent of control (DCLK2 (human)): 95%
- kinase still bound, per cent of control (AKT2 (human)): 100%
- kinase still bound, per cent of control (MAP2K7 (human)): 100%
- kinase still bound, per cent of control (PRKD3 (human)): 100%
- kinase still bound, per cent of control (LTK (human)): 87%
- kinase still bound, per cent of control (MAPK4 (human)): 68%
- kinase still bound, per cent of control (MARK1 (human)): 100%
- kinase still bound, per cent of control (EPHB1 (human)): 100%
- kinase still bound, per cent of control (ERBB4 (human)): 98%
- kinase still bound, per cent of control (PRKG2 (human)): 86%
- kinase still bound, per cent of control (STK33 (human)): 84%
- kinase still bound, per cent of control (CDC42BPB (human)): 96%
- kinase still bound, per cent of control (IKBKE (human)): 81%
- kinase still bound, per cent of control (DAPK2 (human)): 96%
- kinase still bound, per cent of control (ULK1 (human)): 84%
- kinase still bound, per cent of control (FLT3 (human)): 100%
- kinase still bound, per cent of control (NTRK1 (human)): 71%
- kinase still bound, per cent of control (CDC42BPA (human)): 100%
- kinase still bound, per cent of control (PKMYT1 (human)): 100%
- kinase still bound, per cent of control (TGFBR1 (human)): 100%
- kinase still bound, per cent of control [3]: 93%
- kinase still bound, per cent of control (CaMK1 (human)): 96%
- kinase still bound, per cent of control (STK38L (human)): 97%
- kinase still bound, per cent of control (PIK3CB (human)): 42%
- kinase still bound, per cent of control (BRSK2 (human)): 100%
- kinase still bound, per cent of control (SRC (human)): 95%
- kinase still bound, per cent of control [4]: 6.8%
- kinase still bound, per cent of control (ACVR1B (human)): 100%

Structure (SMILES): CC(C)n1nc(-c2cc3cc(O)ccc3[nH]2)c2c(N)ncnc21
- kinase still bound, per cent of control (CSF1R (human)): 33%
- kinase still bound, per cent of control (CAMK2B (human)): 63%
- kinase still bound, per cent of control (ICK (human)): 58%
- per cent of control (CDK4 CCND1 (human)): 60%
- kinase still bound, per cent of control (PLK2 (human)): 13%
- kinase still bound, per cent of control (BRSK1 (human)): 1.6%
- kinase still bound, per cent of control (LRRK2 (human)): 4.8%
- kinase still bound, per cent of control (NEK5 (human)): 86%
- kinase still bound, per cent of control (CHUK (human)): 41%
- per cent of control (CDK18 (human)): 100%
- kinase still bound, per cent of control (MAP2K5 (human)): 0.35%
- kinase still bound, per cent of control (DCLK2 (human)): 100%
- kinase still bound, per cent of control (AKT2 (human)): 100%
- kinase still bound, per cent of control (MAP2K7 (human)): 75%
- kinase still bound, per cent of control (PRKD3 (human)): 94%
- kinase still bound, per cent of control (LTK (human)): 16%
- kinase still bound, per cent of control (MAPK4 (human)): 75%
- kinase still bound, per cent of control (MARK1 (human)): 81%
- kinase still bound, per cent of control (EPHB1 (human)): 49%
- kinase still bound, per cent of control (ERBB4 (human)): 49%
- kinase still bound, per cent of control (STK33 (human)): 45%
- kinase still bound, per cent of control (CDC42BPB (human)): 71%
- kinase still bound, per cent of control (IKBKE (human)): 70%
- kinase still bound, per cent of control (DAPK2 (human)): 3.8%
- kinase still bound, per cent of control (ULK1 (human)): 86%
- kinase still bound, per cent of control (FLT3 (human)): 40%
- kinase still bound, per cent of control (NTRK1 (human)): 46%
- kinase still bound, per cent of control (CDC42BPA (human)): 74%
- kinase still bound, per cent of control (PKMYT1 (human)): 37%
- kinase still bound, per cent of control (TGFBR1 (human)): 1.1%
- kinase still bound, per cent of control [3]: 27%
- kinase still bound, per cent of control (CaMK1 (human)): 45%
- kinase still bound, per cent of control (STK38L (human)): 63%
- kinase still bound, per cent of control (PIK3CB (human)): 0%
- kinase still bound, per cent of control (BRSK2 (human)): 0.95%
- kinase still bound, per cent of control (ACVR1B (human)): 11%
